Results taken from PubChem BioAssay AID330 (DTP/NCI, 2004).
Where “and” joins values, the source holds several entries; their conditions need not be identical. Equal values may be shown once. Inconclusive results and toxic doses are left out.

Test system: P388 leukemia ip, CD2F1 mice, survival T/C
Experiment: NCI In Vivo Anticancer Drug Screen. Data for tumor model P388 Leukemia (intraperitoneal) in CD2F1 (CDF1) mice
Conditions: endpoint: median survival time, higher = longer survival
How it was run: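 Mice carrying the transplanted tumor received test compound or vehicle. Survival was recorded in each group, and the value is the treated-group measurement divided by that of the vehicle-treated control group.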

[1] = dose: 60.0 mg/kg/injection, schedule: Q01DX005 (ip), vehicle: saline with Tween-80
[2] = dose: 120.0 mg/kg/injection, schedule: Q01DX005 (ip), vehicle: saline with Tween-80
[3] = dose: 240.0 mg/kg/injection, schedule: Q01DX005 (ip), vehicle: saline with Tween-80
[4] = dose: 50.0 mg/kg/injection, schedule: Q01DX005 (ip), vehicle: Klucel (hydroxypropylcellulose) (HPC)
[5] = dose: 100.0 mg/kg/injection, schedule: Q01DX005 (ip), vehicle: Klucel (hydroxypropylcellulose) (HPC)
[6] = dose: 200.0 mg/kg/injection, schedule: Q01DX005 (ip), vehicle: Klucel (hydroxypropylcellulose) (HPC)
[7] = dose: 60.0 mg/kg/injection, schedule: Q01DX005 (ip), vehicle: saline
[8] = dose: 120.0 mg/kg/injection, schedule: Q01DX005 (ip), vehicle: saline
[9] = dose: 240.0 mg/kg/injection, schedule: Q01DX005 (ip), vehicle: saline
[10] = dose: 100.0 mg/kg/injection, schedule: Q01DX009 (ip), vehicle: saline with Tween-80
[11] = dose: 200.0 mg/kg/injection, schedule: Q01DX009 (ip), vehicle: saline with Tween-80
[12] = dose: 12.5 mg/kg/injection, schedule: Q01DX009 (ip), vehicle: saline with Tween-80
[13] = dose: 25.0 mg/kg/injection, schedule: Q01DX009 (ip), vehicle: saline with Tween-80
[14] = dose: 50.0 mg/kg/injection, schedule: Q01DX009 (ip), vehicle: saline with Tween-80
[15] = dose: 50.0 mg/kg/injection, schedule: Q01DX005 (ip), vehicle: saline with Tween-80
[16] = dose: 100.0 mg/kg/injection, schedule: Q01DX005 (ip), vehicle: saline with Tween-80
[17] = dose: 200.0 mg/kg/injection, schedule: Q01DX005 (ip), vehicle: saline with Tween-80
[18] = dose: 25.0 mg/kg/injection, schedule: Q01DX005 (ip), vehicle: Klucel (hydroxypropylcellulose) (HPC)

For c1cc(Cc2ccsc2)cs1, the T/C [1] was 104 % of control, the T/C [2] was 104 % of control and the T/C [3] was 106 % of control.

With CSCCC(NC(=O)C(Cc1c[nH]c2ccccc12)NC(=O)CCNC(=O)OC(C)(C)C)C(=O)NC(CC(=O)O)C(=O)NC(Cc1ccccc1)C(N)=O (configuration not stated) the T/C [4] was 98 % of control, the T/C [5] was 100 % of control and the T/C [6] was 97 % of control.

CCC(=O)N1C(=O)C(C)C23c4cc(OC)c(OC)cc4C(=O)N2CCCN13 (configuration not stated) was tested, and the T/C (dose: 60.0 mg/kg/injection, schedule: Q01DX005 (ip), vehicle: Klucel (hydroxypropylcellulose) (HPC)) was 100 % of control, the T/C (dose: 120.0 mg/kg/injection, schedule: Q01DX005 (ip), vehicle: Klucel (hydroxypropylcellulose) (HPC)) was 94 % of control and the T/C (dose: 240.0 mg/kg/injection, schedule: Q01DX005 (ip), vehicle: Klucel (hydroxypropylcellulose) (HPC)) was 90 % of control.

For CN1CCC(=NO)CC1, the T/C [7] was 95 % of control, the T/C [8] was 89 % of control and the T/C [9] was 94 % of control.

With O=C1CNC(=O)N1c1ccccc1 the T/C [10] was 103 % of control, the T/C [11] was 98 % of control and the T/C (dose: 400.0 mg/kg/injection, schedule: Q01DX009 (ip), vehicle: saline with Tween-80) was 103 % of control.

O=C(O)C(O)C(O)C(OC1OC(CO)C(O)C(O)C1O)C(O)CO (configuration not stated) was tested, and the T/C (dose: 50.0 mg/kg/injection, schedule: Q01DX005 (ip), vehicle: saline) was 105 % of control, the T/C (dose: 100.0 mg/kg/injection, schedule: Q01DX005 (ip), vehicle: saline) was 101 % of control and the T/C (dose: 200.0 mg/kg/injection, schedule: Q01DX005 (ip), vehicle: saline) was 102 % of control.

With CC(C)(C)NSc1nc2ccccc2s1 the T/C [12] was 109 % of control, the T/C (dose: 12.5 mg/kg/injection, schedule: Q04DX003 (ip), vehicle: saline with Tween-80) was 100 % of control and the T/C [13] was 100 % of control. The T/C (dose: 25.0 mg/kg/injection, schedule: Q04DX003 (ip), vehicle: saline with Tween-80) was 95 % of control, the T/C [14] was 100 % of control and the T/C (dose: 50.0 mg/kg/injection, schedule: Q04DX003 (ip), vehicle: saline with Tween-80) was 100 % of control and 87 % of control.

With O=c1ccc2[n+]([O-])c3ccc(O)cc3oc-2c1 the T/C [15] was 95 % of control and the T/C [16] was 100 % of control.

In the case of Cc1ccc(N2CCCCN(c3ccc(C)cc3)/C(c3ccccc3)=C\2c2ccccc2)cc1, the T/C (dose: 100.0 mg/kg/injection, schedule: Q01DX001 (ip), vehicle: Klucel (hydroxypropylcellulose) (HPC)) is reported as 91 % of control, the T/C (dose: 200.0 mg/kg/injection, schedule: Q01DX001 (ip), vehicle: Klucel (hydroxypropylcellulose) (HPC)) is reported as 91 % of control and the T/C (dose: 400.0 mg/kg/injection, schedule: Q01DX001 (ip), vehicle: Klucel (hydroxypropylcellulose) (HPC)) is reported as 101 % of control and 91 % of control.

COc1cccc(C2OC3=C(Nc4ccc([N+](=O)[O-])cc4N3)C2=O)c1 (configuration not stated) was tested, and the T/C [4] was 102 % of control, the T/C [5] was 101 % of control and the T/C [6] was 96 % of control.

For Cn1cnc2cc(NCCO)c([N+](=O)[O-])cc2c1=O, the T/C (dose: 100.0 mg/kg/injection, schedule: Q04DX003 (ip), vehicle: saline) was 105 % of control, the T/C (dose: 200.0 mg/kg/injection, schedule: Q04DX003 (ip), vehicle: saline) was 119 % of control and the T/C (dose: 400.0 mg/kg/injection, schedule: Q04DX003 (ip), vehicle: saline) was 96 % of control.

With O=C1Nc2ccc(Br)cc2/C1=c1/sc2nc3ccccc3n2c1=O the T/C (dose: 1.56 mg/kg/injection, schedule: Q01DX005 (ip), vehicle: saline with Tween-80) was 100 % of control, the T/C (dose: 3.12 mg/kg/injection, schedule: Q01DX005 (ip), vehicle: saline with Tween-80) was 98 % of control and the T/C (dose: 6.25 mg/kg/injection, schedule: Q01DX005 (ip), vehicle: saline with Tween-80) was 100 % of control. For the same compound, the T/C [4] was 87 % of control and the T/C [5] was 94 % of control.

OCc1ccn2c1C(O)CC2 (configuration not stated) was tested, and the T/C (dose: 12.5 mg/kg/injection, schedule: Q01DX009 (ip), vehicle: saline) was 124 % of control, the T/C (dose: 50.0 mg/kg/injection, schedule: Q01DX009 (ip), vehicle: saline) was 113 % of control and the T/C (dose: 100.0 mg/kg/injection, schedule: Q01DX009 (ip), vehicle: saline) was 201 % of control. The T/C (dose: 200.0 mg/kg/injection, schedule: Q01DX009 (ip), vehicle: saline) was 157 % of control.

N#CCC(C#N)N1CCOCC1 (configuration not stated) was tested, and the T/C [13] was 100 % of control, the T/C [14] was 100 % of control and the T/C [10] was 100 % of control.

For Oc1ccc2ccccc2c1/C=C/c1ccc2c(Br)cc(Br)c(O)c2n1, the T/C [15] was 99 % of control, the T/C [16] was 106 % of control and the T/C [17] was 88 % of control.

O=C(c1ccc(O)cc1)c1ccc(O)cc1O was tested, and the T/C (dose: 66.0 mg/kg/injection, schedule: Q01DX001 (ip), vehicle: saline) was 100 % of control, the T/C (dose: 150.0 mg/kg/injection, schedule: Q01DX001 (ip), vehicle: saline) was 88 % of control and the T/C (dose: 200.0 mg/kg/injection, schedule: Q01DX001 (ip), vehicle: saline) was 100 % of control. For the same compound, the T/C (dose: 400.0 mg/kg/injection, schedule: Q01DX001 (ip), vehicle: saline) was 100 % of control.

In the case of C#CCOC(=O)C1CCCCC1, the T/C [14] is reported as 110 % of control, the T/C [10] is reported as 110 % of control and the T/C [11] is reported as 112 % of control.

C[Si](C)(C)c1ccc2c(c1O)C(=O)c1ccccc1C2=O was tested, and the T/C [15] was 100 % of control, the T/C [16] was 100 % of control and the T/C [17] was 102 % of control.

C/C(=N\N)c1cnc(N)nc1C was tested, and the T/C [7] was 101 % of control, the T/C [8] was 107 % of control and the T/C [9] was 100 % of control.

C(=C\c1ccc2c(c1)OCO2)/c1ccncc1 was tested, and the T/C [18] was 102 % of control, the T/C [4] was 94 % of control and 102 % of control and the T/C [5] was 95 % of control and 101 % of control. For the same compound, the T/C [6] was 100 % of control and 90 % of control.

In the case of O=c1[nH]c2ccc(Cl)cc2[nH]c1=O, the T/C [15] is reported as 99 % of control, the T/C [16] is reported as 100 % of control and the T/C [17] is reported as 94 % of control.

For Nc1ccc(Cl)cc1N, the T/C (dose: 12.5 mg/kg/injection, schedule: Q01DX009 (ip), vehicle: other) was 105 % of control, the T/C [12] was 102 % of control and the T/C (dose: 25.0 mg/kg/injection, schedule: Q01DX009 (ip), vehicle: other) was 100 % of control. For the same compound, the T/C [13] was 102 % of control and 104 % of control, the T/C (dose: 50.0 mg/kg/injection, schedule: Q01DX009 (ip), vehicle: other) was 113 % of control and the T/C [14] was 101 % of control and 107 % of control. The T/C (dose: 100.0 mg/kg/injection, schedule: Q01DX009 (ip), vehicle: other) was 105 % of control, the T/C [10] was 100 % of control and 105 % of control and the T/C (dose: 200.0 mg/kg/injection, schedule: Q01DX009 (ip), vehicle: other) was 105 % of control. The T/C [11] was 114 % of control and 121 % of control.

For COc1cc(C)c(/C=C/C(C)=C/c2cc(C)cc(=O)o2)c(C)c1C, the T/C [18] was 86 % of control, the T/C [4] was 88 % of control and the T/C [5] was 86 % of control and 92 % of control.

O=C1COC(c2ccccc2O)=NN1CCN1CCOCC1 was tested, and the T/C [14] was 103 % of control, the T/C [10] was 103 % of control and the T/C [11] was 94 % of control.

For CCCSCCC(C)(N)C(=O)O (configuration not stated), the T/C (dose: 25.0 mg/kg/injection, schedule: Q01DX009 (ip), vehicle: Klucel (hydroxypropylcellulose) (HPC)) was 98 % of control, the T/C (dose: 50.0 mg/kg/injection, schedule: Q01DX009 (ip), vehicle: Klucel (hydroxypropylcellulose) (HPC)) was 91 % of control and the T/C (dose: 100.0 mg/kg/injection, schedule: Q01DX009 (ip), vehicle: Klucel (hydroxypropylcellulose) (HPC)) was 107 % of control. The T/C (dose: 200.0 mg/kg/injection, schedule: Q01DX009 (ip), vehicle: Klucel (hydroxypropylcellulose) (HPC)) was 96 % of control.

With Cc1coc2c1C[C@@]1(C)[C@H](C2)C(=O)CC[C@@H]1C the T/C (dose: 37.5 mg/kg/injection, schedule: Q01DX009 (ip), vehicle: Klucel (hydroxypropylcellulose) (HPC)) was 105 % of control.

In the case of CC1(C)S/C(=C\c2ccccc2)c2nc3ccccc3c(=O)n21, the T/C [1] is reported as 97 % of control, the T/C [2] is reported as 91 % of control and the T/C [3] is reported as 89 % of control.

For O=C(CCl)SCc1ccccc1, the T/C (dose: 100.0 mg/kg/injection, schedule: Q04DX003 (ip), vehicle: saline with Tween-80) was 107 % of control and the T/C (dose: 200.0 mg/kg/injection, schedule: Q04DX003 (ip), vehicle: saline with Tween-80) was 99 % of control.

For O=C1CSc2nc3c(Cl)cc(Cl)cc3c(=O)n21, the T/C [15] was 108 % of control, the T/C [16] was 100 % of control and the T/C [17] was 105 % of control.

[Cl][Pd][Cl] was tested, and the T/C (dose: 3.0 mg/kg/injection, schedule: Q01DX009 (ip), vehicle: saline with Tween-80) was 95 % of control, the T/C (dose: 6.0 mg/kg/injection, schedule: Q01DX009 (ip), vehicle: saline with Tween-80) was 113 % of control and the T/C (dose: 12.0 mg/kg/injection, schedule: Q01DX009 (ip), vehicle: saline with Tween-80) was 122 % of control.
